Data reported in PubChem BioAssay (NCI).
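Following 48 hours of exposure in 96-well plates, responses at five concentrations were used to interpolate endpoints linearly. GI50 is the concentration that inhibits growth by half. At the TGI there is no net growth.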

Tests used:
Assay in all cases: NCI-60 cell line screen, 48 h
HOP-62 NSCLC = system: HOP-62 NSCLC
NCI-H522 lung = system: NCI-H522 lung
SNB-19 CNS = system: SNB-19 CNS
MDA-MB-435 = system: MDA-MB-435
NCI-H460 lung = system: NCI-H460 lung
SW-620 colon = system: SW-620 colon
SF-539 CNS = system: SF-539 CNS
MDA-N = system: MDA-N
DU-145 prostate = system: DU-145 prostate
LOX IMVI melanoma = system: LOX IMVI melanoma
SN12C renal = system: SN12C renal
786-0 renal = system: 786-0 renal
HL-60(TB) leukemia = system: HL-60(TB) leukemia
SK-MEL-5 melanoma = system: SK-MEL-5 melanoma
RPMI-8226 leukemia = system: RPMI-8226 leukemia
SK-MEL-2 melanoma = system: SK-MEL-2 melanoma
MCF7 breast = system: MCF7 breast
EKVX NSCLC = system: EKVX NSCLC
HCT-15 colon = system: HCT-15 colon
OVCAR-4 ovarian = system: OVCAR-4 ovarian
SK-MEL-28 melanoma = system: SK-MEL-28 melanoma
SF-268 CNS = system: SF-268 CNS
HS 578T breast = system: HS 578T breast
MDA-MB-231 breast = system: MDA-MB-231 breast
HT29 colon = system: HT29 colon
NCI-H23 lung = system: NCI-H23 lung
UACC-62 melanoma = system: UACC-62 melanoma
CAKI-1 renal = system: CAKI-1 renal
SNB-75 CNS = system: SNB-75 CNS
TK-10 renal = system: TK-10 renal
HOP-92 NSCLC = system: HOP-92 NSCLC
T-47D breast = system: T-47D breast
NCI/ADR-RES ovarian = system: NCI/ADR-RES ovarian
HCC-2998 colon = system: HCC-2998 colon
U251 CNS = system: U251 CNS
UO-31 renal = system: UO-31 renal
ACHN renal = system: ACHN renal
SF-295 CNS = system: SF-295 CNS
BT-549 breast = system: BT-549 breast
KM12 colon = system: KM12 colon
M14 melanoma = system: M14 melanoma
IGROV1 ovarian = system: IGROV1 ovarian
SK-OV-3 ovarian = system: SK-OV-3 ovarian
MOLT-4 leukemia = system: MOLT-4 leukemia
SR leukemia = system: SR leukemia
NCI-H226 lung = system: NCI-H226 lung
PC-3 prostate = system: PC-3 prostate
A498 renal = system: A498 renal
CCRF-CEM leukemia = system: CCRF-CEM leukemia
OVCAR-3 ovarian = system: OVCAR-3 ovarian
RXF 393 renal = system: RXF 393 renal
OVCAR-8 ovarian = system: OVCAR-8 ovarian
COLO 205 colon = system: COLO 205 colon
HCT-116 colon = system: HCT-116 colon
K-562 leukemia = system: K-562 leukemia
OVCAR-5 ovarian = system: OVCAR-5 ovarian
MALME-3M melanoma = system: MALME-3M melanoma
A549 NSCLC = system: A549 NSCLC
UACC-257 melanoma = system: UACC-257 melanoma
DMS 273 small cell lung = system: DMS 273 small cell lung
KM20L2 colon = system: KM20L2 colon
DLD-1 colon = system: DLD-1 colon
SNB-78 CNS = system: SNB-78 CNS

## COC(=O)c1cccc(OC)c1C#Cc1c(OC)cccc1OC
HOP-62 NSCLC
  TGI: > 100 µM
NCI-H522 lung
  TGI: > 100 µM
SNB-19 CNS
  TGI: > 100 µM
MDA-MB-435
  TGI: > 100 µM
NCI-H460 lung
  TGI: > 100 µM
SW-620 colon
  TGI: > 100 µM
SF-539 CNS
  TGI: > 100 µM
MDA-N
  TGI: > 100 µM
DU-145 prostate
  TGI: > 100 µM
LOX IMVI melanoma
  TGI: > 100 µM
SN12C renal
  TGI: > 100 µM
786-0 renal
  TGI: > 100 µM
HL-60(TB) leukemia
  TGI: > 100 µM
SK-MEL-5 melanoma
  TGI: > 100 µM
RPMI-8226 leukemia
  TGI: > 100 µM
SK-MEL-2 melanoma
  TGI: > 100 µM
MCF7 breast
  TGI: > 100 µM
EKVX NSCLC
  TGI: > 100 µM
HCT-15 colon
  TGI: > 100 µM
OVCAR-4 ovarian
  TGI: > 100 µM
SK-MEL-28 melanoma
  TGI: > 100 µM
SF-268 CNS
  TGI: > 100 µM
HS 578T breast
  TGI: > 100 µM
MDA-MB-231 breast
  TGI: > 100 µM
HT29 colon
  TGI: > 100 µM
NCI-H23 lung
  TGI: > 100 µM
UACC-62 melanoma
  TGI: > 100 µM
CAKI-1 renal
  TGI: > 100 µM
SNB-75 CNS
  TGI: > 100 µM
TK-10 renal
  TGI: > 100 µM
HOP-92 NSCLC
  TGI: > 100 µM
T-47D breast
  TGI: > 100 µM
NCI/ADR-RES ovarian
  TGI: > 100 µM
HCC-2998 colon
  TGI: > 100 µM
U251 CNS
  TGI: > 100 µM
UO-31 renal
  TGI: > 100 µM
ACHN renal
  TGI: > 100 µM
SF-295 CNS
  TGI: > 100 µM
BT-549 breast
  TGI: > 100 µM
KM12 colon
  TGI: > 100 µM
M14 melanoma
  TGI: > 100 µM
IGROV1 ovarian
  TGI: > 100 µM
SK-OV-3 ovarian
  TGI: > 100 µM
MOLT-4 leukemia
  TGI: > 100 µM
SR leukemia
  TGI: > 100 µM
NCI-H226 lung
  TGI: > 100 µM
PC-3 prostate
  TGI: > 100 µM
A498 renal
  TGI: > 100 µM
CCRF-CEM leukemia
  TGI: > 100 µM
OVCAR-3 ovarian
  TGI: > 100 µM
RXF 393 renal
  TGI: > 100 µM
OVCAR-8 ovarian
  TGI: > 100 µM
COLO 205 colon
  TGI: > 100 µM
HCT-116 colon
  TGI: > 100 µM
K-562 leukemia
  TGI: > 100 µM
OVCAR-5 ovarian
  TGI: > 100 µM
MALME-3M melanoma
  TGI: > 100 µM
A549 NSCLC
  TGI: > 100 µM
UACC-257 melanoma
  TGI: > 100 µM

## O=c1cccccc1[O-].O=c1cccccc1[O-].O=c1cccccc1[O-].[Ce+3]
HOP-62 NSCLC
  GI50: 17.4 µM
  TGI: 45.3 µM
NCI-H522 lung
  TGI: 44.1 µM
SNB-19 CNS
  TGI: > 100 µM
NCI-H460 lung
  TGI: > 100 µM
SW-620 colon
  TGI: > 100 µM
SF-539 CNS
  GI50: 14.8 µM
  TGI: 58.8 µM
LOX IMVI melanoma
  TGI: > 100 µM
SN12C renal
  GI50: 25.7 µM
  TGI: > 100 µM
786-0 renal
  TGI: 55.2 µM
HL-60(TB) leukemia
  TGI: 89 µM
SK-MEL-5 melanoma
  TGI: 38.8 µM
RPMI-8226 leukemia
  TGI: > 100 µM
DMS 273 small cell lung
  GI50: 11.4 µM
  TGI: > 100 µM
SK-MEL-2 melanoma
  TGI: 51.6 µM
EKVX NSCLC
  TGI: > 100 µM
HCT-15 colon
  TGI: > 100 µM
OVCAR-4 ovarian
  TGI: 76.7 µM
HT29 colon
  TGI: > 100 µM
NCI-H23 lung
  TGI: 86.1 µM
UACC-62 melanoma
  TGI: 40.4 µM
CAKI-1 renal
  TGI: > 100 µM
TK-10 renal
  TGI: 65.2 µM
HOP-92 NSCLC
  TGI: 89.9 µM
HCC-2998 colon
  TGI: > 100 µM
U251 CNS
  GI50: 18.3 µM
  TGI: 93.6 µM
UO-31 renal
  TGI: 84.6 µM
ACHN renal
  TGI: 96.3 µM
SF-295 CNS
  TGI: 78.1 µM
KM12 colon
  TGI: > 100 µM
M14 melanoma
  TGI: > 100 µM
IGROV1 ovarian
  TGI: 88.4 µM
SK-OV-3 ovarian
  TGI: 72.3 µM
MOLT-4 leukemia
  TGI: > 100 µM
NCI-H226 lung
  TGI: > 100 µM
KM20L2 colon
  GI50: 24.1 µM
  TGI: > 100 µM
A498 renal
  GI50: 30.8 µM
  TGI: > 100 µM
CCRF-CEM leukemia
  TGI: > 100 µM
OVCAR-3 ovarian
  TGI: 35.5 µM
RXF 393 renal
  TGI: 40.4 µM
OVCAR-8 ovarian
  TGI: 73.6 µM
DLD-1 colon
  GI50: 16.7 µM
  TGI: > 100 µM
HCT-116 colon
  TGI: 54.3 µM
K-562 leukemia
  TGI: > 100 µM
SNB-78 CNS
  GI50: 15.4 µM
  TGI: 63.2 µM
OVCAR-5 ovarian
  TGI: > 100 µM
MALME-3M melanoma
  TGI: 52.4 µM
A549 NSCLC
  TGI: > 100 µM
UACC-257 melanoma
  TGI: 96.9 µM
